Experimental data as given in patent US20230320995A1, “IONIZABLE CATIONIC LIPIDS AND LIPID NANOPARTICLES” (CAPSTAN THERAPEUTICS, INC., priority 2022, published 2023).
Read-outs that look alike come from different tables or passages of the source.

Tests used:
[1] = tested on: mouse splenic T cells; experiment: targeted transfection of T cells in vitro with CD5-targeted tLNP; type: cell-based; conditions: activated mouse splenic T cells, 0.6 μg tLNP per well; for transfection rate (proportion of CD3+ cells mCherry positive): 1 hour, read next day
Description: To assess the performance of tLNP described in Example 35 they were used to transfect mouse T cells in tissue culture. Mouse splenic T cells were isolated from mechanically dissociated mouse spleens using a standard T cell isolation kit (Stem Cell Technologies #19851). Isolated T cells were cultured in complete RPMI medium supplemented with murine interleukin-2 in the presence of CD3/CD28 T cell activation beads (Gibco #11453D) for 3 days. Following activation, T cells were magnetically separated from the activation beads and transferred to a 96-well plate at a concentration of 2×10^5 cells per well in 100 μL of complete RPMI medium. tLNP formulations as described in Example 35 (above) were diluted to 100 μg/mL and 6 μL (0.6 μg) of tLNP was added to each well of cells to be tested. Cells were incubated with tLNPs at 37° C. for 1 hour before tLNPs were washed away by centrifuging the plate, removing the supernatant, and replacing with fresh medium. Transfected cells were then returned to the incubator overnight. The next day, cells were washed and resuspended in stain buffer containing fluorescently tagged antibodies against T cells markers for 30 minutes before a final wash. After washing, cells were resuspended in stain buffer and run on the Novocyte Quanteon flow cytometer to detect mCherry expression as well as murine T cell markers. Results for CD3^+ T cells are depicted in FIG. 6.

[2] = apparent pKa of ionizable lipid in lipid nanoparticle, TNS assay; type: physicochemical; conditions: for ΔpKa: difference of calculated and measured pKa; for pKa: TNS assay
Description: c Log D and c-pKa were calculated as noted above. The measured pKa of a lipid was determined as formulated in a lipid nanoparticle using the TNS assay as described in the following Example.
The apparent pKa of ionizable lipid in the lipid nanoparticle was determined using 6-(p-toluidino)-2-naphthalenesulfonic acid sodium salt (TNS salt, Toronto Research Chemicals, Toronto, ON, Canada). Lipid nanoparticles were diluted in 1×Dulbecco's PBS to a concentration of 1 mM total lipids. TNS salt was prepared as a 1 mg/mL stock solution in DMSO and then further diluted using distilled water to a working solution of 60 μg/mL ([…]). Diluted lipid nanoparticle samples were further diluted to 90 μM total lipids in 165 μL of buffered solution containing 10 mM HEPES, 10 mM MES, 10 mM ammonium acetate, 130 mM NaCl, and final TNS concentration of 1.33 μg/mL (4 μM) with the pH ranging from 3.5 to 12.2. Following pipette mixing and incubation at room temperature in the dark for 15 min, fluorescence intensity was measured at room temperature in a BioTek Synergy H1 plate reader using excitation and emission wavelengths of 321 and 445 nm, respectively. The fluorescence signal was blank subtracted and plotted as a function of the pH, then analyzed using a nonlinear (Boltzmann) regression analysis with the apparent pKa determined as the pH giving rise to half maximal fluorescence intensity as calculated by the Henderson-Hasselbalch equation.

[3] = physical-chemical properties of CD5-targeted tLNP encapsulating mCherry mRNA; type: physicochemical; conditions: for Hydrodynamic diameter: anti-CD5 tLNP: ionizable lipid/DSPC/cholesterol/DMG-PEG 2000/DSPE-PEG2000-Maleimide 50:10:38.5:1.4:0.1
Text: CleanCap® mCherry 5-methoxyuridine (5moU) mRNA (L-7203) was purchased from TriLink. mRNA was encapsulated in LNP using a self-assembly process in which an aqueous solution of mRNA at pH=3.5 is rapidly mixed with a solution of lipids dissolved in ethanol, then followed by stepwise phosphate and Tris buffer dilution and TFF purification. LNP composition in this study was: ionizable cationic lipid/distearoylphosphatidylcholine/cholesterol/DMG-PEG 2000/distearoylphosphatidyl ethanolamine(DSPE)-PEG2000-Maleimide (50:10:38.5:1.4:0.1 mol/mol) and were encapsulated at an N/P ratio (the ratio of positively-chargeable […] amine (N=nitrogen) groups to negatively-charged nucleic acid phosphate (P) groups) at 6. The hydrodynamic diameter of the nanoparticles was measured by dynamic light scattering using a Zetasizer Nano ZS (Malvern Instruments Ltd., Malvern, UK) instrument.
Next, an anti-CD5 mAb was conjugated to the above LNP to generate tLNP. Purified rat anti-mouse CD5 antibody, clone 53-7.3 (BioLegend), was coupled to LNP via N-succinimidyl S-acetylthioacetate (SATA)-maleimide conjugation chemistry. Briefly, LNPs with DSPE-PEG(2000)-maleimide incorporated were formulated and stored at 4° C. on the day of conjugation. The antibody was modified with SATA (Sigma-Aldrich) to introduce sulfhydryl groups at accessible lysine residues allowing conjugation to maleimide. SATA was deprotected using 0.5 M hydroxylamine followed by removal of the unreacted components by G-25 Sephadex Quick Spin Protein columns (Roche Applied Science, Indianapolis, IN). The reactive sulfhydryl group on the antibody was then conjugated to maleimide moieties on the LNPs using thioether conjugation chemistry. Purification was performed using Sepharose CL-4B gel filtration columns (Sigma-Aldrich). tLNPs (LNPs conjugated with a targeting antibody) were frozen at −80° C. Others have conjugated antibody to free functionalized PEG-lipid and then incorporated the conjugated lipid into pre-formed LNP.
mRNA content was determined using a Quant-iT™ RiboGreen RNA assay kit (Invitrogen™). Encapsulation efficiency was calculated by determining the unencapsulated mRNA content by measuring the fluorescence intensity (Fi) upon the addition of RiboGreen reagent to the LNP and comparing this value to the total fluorescence intensity (Ft) of the RNA content that is obtained upon lysis of the LNPs by 1% Triton X-100, where % encapsulation=(Ft−Fi)/Ft x 100).
The particle size (hydrodynamic diameter) and polydispersity index of the targeted lipid nanoparticles were determined using dynamic light scattering (DLS) on a Malvern Zetasizer Nano ZS (Malvern Instruments, Worcestershire, UK). Size measurement was carried out in pH 7.4 Tris buffer at 25° C. in relevant disposable capillary cells. A non-invasive back scatter system (NIBS) with a scattering angle of 173° was used for size measurements.

[4] = ionizable lipid in tLNP, read-out: Measured pKa
[5] = measured, lipid formulated in a lipid nanoparticle, read-out: pKa

Row | SMILES | level of mCherry expression (MFI) [1] | transfection rate (proportion of CD3+ cells mCherry positive) [1] | ΔpKa [2] | pKa [2, 4] | pKa [2, 5] | Hydrodynamic diameter ([3]; DLS) [nm] | PDI (polydispersity index) ([3]; anti-CD5 tLNP, DLS) | Encapsulation Efficiency ([3]; anti-CD5 tLNP, RiboGreen assay) [%]
1 | CCCCCCCCC(=O)OCC(COC(=O)CCCCCCCC)CC(=O)OCCN(CCOC(=O)CC(COC(=O)CCCCCCCC)COC(=O)CCCCCCCC)C(=O)OCCN(C)C [Compound A-11] | high level of expression | ~80% | 1.81 | 6.65 | 6 to 7 | 93 |  | 
2 | CCCCCCCCCC(=O)OCC(COC(=O)CCCCCCCCC)CC(=O)OCCN(CCOC(=O)CC(COC(=O)CCCCCCCCC)COC(=O)CCCCCCCCC)C(=O)NCCCN(C)C [Compound A-2] |  | poor, but still positive | 1.62 | 7.92 | 7.92 | 105 | 0.20 | 99
